Test results published in patent US6043365A, “Preparation of 2-amino-7-(1-substituted-2-hydroxyethyl)-3, 5-dihydropyrrolo[3,2-d]pyrimidin-4-ones” (Novartis AG, priority 1998, dated 2000).

Tests used:
[1] = molecular target: T1, purine nucleoside phosphorylase (PNP) (Bos taurus, UniProt P55859); experiment: PNP inhibition in vitro, enzymic determination of inorganic phosphate (PNP/xanthine oxidase), calf spleen PNP; assay type: biochemical; settings: 1 mM phosphate concentration; calf spleen PNP; substrate inosine
T1 construct: Calf spleen PNP is used as the enzyme source; from tissue; host or cells: calf spleen
T1 sequence (P55859 1-289): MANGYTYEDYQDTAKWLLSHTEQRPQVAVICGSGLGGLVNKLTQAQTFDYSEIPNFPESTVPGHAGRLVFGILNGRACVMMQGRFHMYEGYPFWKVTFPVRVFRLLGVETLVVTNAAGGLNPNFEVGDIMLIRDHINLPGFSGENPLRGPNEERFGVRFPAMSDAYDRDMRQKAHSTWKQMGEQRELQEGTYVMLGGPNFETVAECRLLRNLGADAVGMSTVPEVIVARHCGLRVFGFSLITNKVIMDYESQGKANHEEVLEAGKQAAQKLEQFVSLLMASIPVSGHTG
Description: PNP inhibition can be measured by measuring the formation of [^14- C]-[…] [Biomedicine, 33, 39 (1980)] using calf spleen as the enzyme source and 1 or 50 mM phosphate. Results are expressed as IC50 values, corresponding to the concentration of compound required to achieve a 50% reduction of the formation of hypoxanthine.
PNP inhibition can also be determined in vitro as follows: An enzymic method for the determination of inorganic phosphate (see Chem. Pharm. Bull., 1981, 29:1451-5), based on the principle of forming hydrogen peroxide with purine nucleoside phosphorylase (PNP) and xanthine oxidase, is used to calorimetrically measure the degree of linkage between enzyme and substrate (inosine). Calf spleen PNP is used as the enzyme source. The IC50 values for the compounds studied are determined graphically at two phosphate concentrations (1 and 50 mM) from a plot of percent inhibition versus compound concentration.

CCRF-CEM cells = experiment: CCRF-CEM cell assay: potentiation of the cell growth inhibitory activity (cytotoxicity) of 2'-deoxyguanosine (d-Guo); assay type: cell-based; settings: Homo sapiens, d-Guo 10 μM, 72 hours
Description: The selective suppression of spontaneous T-cell proliferation in vitro is measured by the potentiation of the cell growth inhibitory activity (cytotoxicity) of 2'-deoxyguanosine (d-Guo) by the compounds of the invention, determined as follows: Human CCRF-CEM cells are grown in RPMI-1640 medium. To suspension cultures of these cells, d-Guo at a fixed concentration (10 μM) and the candidate PNP inhibitor at varied concentrations are added and the number of cells are determined in a Coulter counter 24, 48, and 72 hours thereafter. […] This method is similar to that previously used to determine the effectiveness of PNP inhibitors on potentiation of the toxicity of d-Guo. [See D. A. Shewach et al., Cancer Res., 46, 519 (1986); J. C. Sircar et al., Agents and Actions, 21, 253 (1987), also Methods in Pharmacology, D. M. Paten, ed. 1985, pp. 147-162].

[2] = system: purine nucleoside phosphorylase (PNP); experiment: PNP inhibition in vivo: plasma inosine level in mice after oral dose; settings: at a dose of e.g. 10 mg/Kg p.o.
Description: Briefly, mice are treated orally with the PNP inhibitor suspended in fortified cornstarch (3% cornstarch suspension in water with 0.33% Tween 80 and 5% PEG 400) at a final volume of 10 ml/kg. One or more hours after a single oral dose of compound, the mice are bled by cardiac puncture into 25 U/ml heparin to obtain plasma. The samples are analyzed for both inosine and drug levels by a gradient reverse-phase high performance liquid chromatography (HPLC) method (see Anal Chem, 1977, 49:2237-41). Quantitation is performed using an internal standard method with 2',3'-dideoxyinosine (DDI) as the internal standard.

[3] = system: collagen II induced arthritis; experiment: Antiarthritic activity, collagen II induced arthritis in mice model; assay type: in vivo, DBA/1LacJ female mice; settings: 20 mg/Kg/day; orally once daily, day 1 through day 42
Description: The antiarthritic activity can be determined in the collagen II induced arthritis in mice model. DBA/1LacJ female mice, 6-8 weeks old, are immunized with 100 μg of chicken type II collagen emulsified in Freund's complete adjuvant (FCA) by injecting at the base of the tail on day 0. On day 17 after collagen injection, the immune response to type II collagen is boosted with a subcutaneous injection of 200 μg LPS solubilized in PBS. Paws are examined on days 17, 21, 24, 28, 31, 35, and 42 and scored for the symptoms of arthritis based on criteria such as inflammation, swelling and ankylosis. Compounds are suspended in corn starch vehicle and administered orally to mice once daily beginning on day 1 and continuing through day 42.

transplant rejection = experiment: Protection against transplant rejection, mouse tail skin transplantation procedure; assay type: in vivo, mouse (C57BL/10-SnJ and B10.BR/SgSnJ)
Source text: Protection against transplant rejection can be determined in a mouse tail skin transplantation procedure.
Mice are anesthetized with tribromoethanol i.p. injection according to the method of Papaioannou and Fox (Lab. Animal Science 1993;43:189-92). The mouse tail skin transplant rejection model is a modification of that described by Baily and Usama, (Transpl. Bull. 1960;7:424-5). Four skin grafts per mouse are exchanged between strains [C57BL/10-SnJ (H-2K^b) and B10.BR/SgSnJ (H-2K^k)] at surgery (d0). Fitted skin grafts are made with a scalpel, and tail graft sites are protected with tubing for 2 days following surgery. Mouse tails are evaluated at day 7 for missing grafts. Only those graft sites that have patent grafts at day 7 are evaluated at later scoring intervals. Grafts are scored numerically for signs of rejection at ~weekly scoring intervals starting day 14. Dose-group mean graft scores are compared statistically.

Compound: Nc1nc2c([C@@H](CO)c3ccccc3)c[nH]c2c(=O)[nH]1 [Example 3f, 2-Amino-7-(2(S)-hydroxy-1-phenylethyl)-3,5-dihydro-4H-pyrrolo[3,2-d]-pyrimidin-4-one]
- IC50 [1]: ~10 nM
- IC50 (CCRF-CEM cells): ~100 nM
- plasma level of inosine [2]: significant increase in the plasma level of inosine

Compound: Nc1nc2c([C@@H](CO)c3ccccc3F)c[nH]c2c(=O)[nH]1 [Example 1, 2-amino-7-[1-(2-fluorophenyl)-2(R)-hydroxyethyl]-3,5-dihydro-4H-pyrrolo[3,2-d]pyrimidin-4-one]
- IC50 [1]: ~10 nM
- IC50 (CCRF-CEM cells): ~75 nM
- plasma level of inosine [2]: significant increase in the plasma level of inosine
- antiarthritic activity [3]: effective
- protection against transplant rejection (transplant rejection; 50 mg/Kg/day, mouse): effective in protecting against transplant rejection
- transplant rejection model, combination with cyclosporin (transplant rejection; combination of compound and cyclosporin vs either alone): superior to either cyclosporin or the PNP inhibitor alone
